Source: publication PMC9330389, “Bambus[4,6]urils as Dual Scaffolds for Multivalent Iminosugar Presentation and Ion Transport: Access to Unprecedented Glycosidase-Directed Anion Caging Agents” (Molecules, 2022)

Biological target: T1, Jack Bean α-mannosidase (Canavalia ensiformis, UniProt C0HJB3)
T1 construct: purchased Sigma Aldrich, St. Louis, MO, USA
T1 sequence (C0HJB3 1-981): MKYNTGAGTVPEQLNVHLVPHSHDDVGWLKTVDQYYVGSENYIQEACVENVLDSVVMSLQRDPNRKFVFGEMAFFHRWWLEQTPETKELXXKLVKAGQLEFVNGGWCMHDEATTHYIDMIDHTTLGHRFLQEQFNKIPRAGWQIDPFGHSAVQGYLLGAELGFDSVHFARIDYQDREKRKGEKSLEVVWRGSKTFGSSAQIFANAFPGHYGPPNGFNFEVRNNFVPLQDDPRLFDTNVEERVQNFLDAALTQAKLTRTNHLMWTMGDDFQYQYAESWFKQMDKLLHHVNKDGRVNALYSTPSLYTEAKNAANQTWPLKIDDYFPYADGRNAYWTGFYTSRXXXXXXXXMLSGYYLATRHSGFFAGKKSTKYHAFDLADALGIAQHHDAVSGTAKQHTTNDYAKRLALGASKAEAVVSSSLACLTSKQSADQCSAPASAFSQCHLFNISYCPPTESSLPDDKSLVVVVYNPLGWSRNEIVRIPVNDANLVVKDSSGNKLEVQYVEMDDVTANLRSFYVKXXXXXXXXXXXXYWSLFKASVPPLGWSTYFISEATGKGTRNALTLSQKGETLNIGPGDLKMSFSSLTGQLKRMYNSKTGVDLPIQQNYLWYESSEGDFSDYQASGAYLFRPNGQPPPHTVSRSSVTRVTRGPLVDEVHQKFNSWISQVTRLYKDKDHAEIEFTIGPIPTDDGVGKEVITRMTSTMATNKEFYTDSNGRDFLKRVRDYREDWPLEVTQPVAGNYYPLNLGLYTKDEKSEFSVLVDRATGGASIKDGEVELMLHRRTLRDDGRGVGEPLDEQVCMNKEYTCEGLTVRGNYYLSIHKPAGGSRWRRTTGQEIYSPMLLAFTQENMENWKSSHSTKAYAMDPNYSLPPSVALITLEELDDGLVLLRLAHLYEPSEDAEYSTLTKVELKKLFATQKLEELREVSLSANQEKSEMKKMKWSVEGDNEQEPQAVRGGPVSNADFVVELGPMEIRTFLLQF
Assay: Inhibition assays on Jack-Bean α-mannosidase (p-nitrophenyl-α-D-mannopyranoside hydrolysis, Dixon and Lineweaver–Burk)
Type: biochemical
Details: for Ki: 0.2 M acetate buffer pH 5, 25-27 °C, for mixed inhibitors the first value of the cell (Ki); for rp/n (relative potency per inhitope): n = number of inhitope units; for Rp (relative potency): rp = Ki (monovalent reference)/Ki (neoglycocluster); for Ki': mixed inhibition, second value of the cell (Ki' in supplement)
Protocol: p-nitrophenyl-α-D-mannopyranoside and α-mannosidase (EC 3.2.1.24, from Jack Bean) were purchased from Sigma Aldrich, St. Louis, MO, USA. Inhibition constants were determined spectrophotometrically by measuring the residual hydrolytic activities of the α-mannosidase against p-nitrophenyl-α-D-mannopyranoside in the presence and absence of an inhibitor. Each well was filled with a total volume of 100 µL, containing 0.2 M acetate buffer pH 5, inhibitor, substrate and enzyme. All kinetics were performed between 25 °C and 27 °C and started by enzyme addition. After 30–50 min of incubation, the reaction was quenched by addition of 100 µL of 1M Na2CO3. The absorbance of the resulting solution was determined at 405 nm. Ki values were determined in triplicate, using the Dixon and Lineweaver–Burk graphical methods within Microsoft Excel. Stock solutions of inhibitors were prepared with DMSO/buffer for final well DMSO content under 5%. The stability of the enzyme in the presence of the same concentrations of DMSO was controlled and enzyme activity was unaffected.

| Inhibition Mode | Ki [µM] | rp/n (relative potency per inhitope) | Rp (relative potency) | Ki' [µM] | Compound |
| --- | --- | --- | --- | --- | --- |
| competitive | 0.71 | 33 | 265 |  | O=C1N(Cc2cn(CCCCCCCCCN3C[C@H](O)[C@@H](O)[C@H](O)[C@H]3CO)nn2)C2C(N1Cc1cn(CCCCCCCCCN3C[C@H](O)[C@@H](O)[C@H](O)[C@H]3CO)nn1)N1CN3C(=O)N(CN4C(=O)N(CN5C(=O)N(CN2C1=O)C1C5N(Cc2cn(CCCCCCCCCN5C[C@H](O)[C@@H](O)[C@H](O)[C@H]5CO)nn2)C(=O)N1Cc1cn(CCCCCCCCCN2C[C@H](O)[C@@H](O)[C@H](O)[C@H]2CO)nn1)C1C4N(Cc2cn(CCCCCCCCCN4C[C@H](O)[C@@H](O)[C@H](O)[C@H]4CO)nn2)C(=O)N1Cc1cn(CCCCCCCCCN2C[C@H](O)[C@@H](O)[C@H](O)[C@H]2CO)nn1)C1C3N(Cc2cn(CCCCCCCCCN3C[C@H](O)[C@@H](O)[C@H](O)[C@H]3CO)nn2)C(=O)N1Cc1cn(CCCCCCCCCN2C[C@H](O)[C@@H](O)[C@H](O)[C@H]2CO)nn1 (stereo partly drawn) [Compound 4, (DNJ-C9)8BU[4]] |
| competitive | 1.06 | 15 | 177 |  | O=C1N(Cc2cn(CCCCCCCCCN3C[C@H](O)[C@@H](O)[C@H](O)[C@H]3CO)nn2)C2C(N1Cc1cn(CCCCCCCCCN3C[C@H](O)[C@@H](O)[C@H](O)[C@H]3CO)nn1)N1CN3C(=O)N(CN4C(=O)N(CN5C(=O)N(CN6C(=O)N(CN7C(=O)N(CN2C1=O)C1C7N(Cc2cn(CCCCCCCCCN7C[C@H](O)[C@@H](O)[C@H](O)[C@H]7CO)nn2)C(=O)N1Cc1cn(CCCCCCCCCN2C[C@H](O)[C@@H](O)[C@H](O)[C@H]2CO)nn1)C1C6N(Cc2cn(CCCCCCCCCN6C[C@H](O)[C@@H](O)[C@H](O)[C@H]6CO)nn2)C(=O)N1Cc1cn(CCCCCCCCCN2C[C@H](O)[C@@H](O)[C@H](O)[C@H]2CO)nn1)C1C5N(Cc2cn(CCCCCCCCCN5C[C@H](O)[C@@H](O)[C@H](O)[C@H]5CO)nn2)C(=O)N1Cc1cn(CCCCCCCCCN2C[C@H](O)[C@@H](O)[C@H](O)[C@H]2CO)nn1)C1C4N(Cc2cn(CCCCCCCCCN4C[C@H](O)[C@@H](O)[C@H](O)[C@H]4CO)nn2)C(=O)N1Cc1cn(CCCCCCCCCN2C[C@H](O)[C@@H](O)[C@H](O)[C@H]2CO)nn1)C1C3N(Cc2cn(CCCCCCCCCN3C[C@H](O)[C@@H](O)[C@H](O)[C@H]3CO)nn2)C(=O)N1Cc1cn(CCCCCCCCCN2C[C@H](O)[C@@H](O)[C@H](O)[C@H]2CO)nn1 (stereo partly drawn) [Compound 7, (DNJ-C9)12BU[6]] |
| mixed | 85.6 |  | 3.8 | 191 ± 37 | CCCC[N+](CCCC)(CCCC)CCCC.O=C1N(Cc2cn(CCCCCCN3C[C@H](O)[C@@H](O)[C@H](O)[C@H]3CO)nn2)C2C(N1Cc1cn(CCCCCCN3C[C@H](O)[C@@H](O)[C@H](O)[C@H]3CO)nn1)N1CN3C(=O)N(CN4C(=O)N(CN5C(=O)N(CN6C(=O)N(CN7C(=O)N(CN2C1=O)C1C7N(Cc2cn(CCCCCCN7C[C@H](O)[C@@H](O)[C@H](O)[C@H]7CO)nn2)C(=O)N1Cc1cn(CCCCCCN2C[C@H](O)[C@@H](O)[C@H](O)[C@H]2CO)nn1)C1C6N(Cc2cn(CCCCCCN6C[C@H](O)[C@@H](O)[C@H](O)[C@H]6CO)nn2)C(=O)N1Cc1cn(CCCCCCN2C[C@H](O)[C@@H](O)[C@H](O)[C@H]2CO)nn1)C1C5N(Cc2cn(CCCCCCN5C[C@H](O)[C@@H](O)[C@H](O)[C@H]5CO)nn2)C(=O)N1Cc1cn(CCCCCCN2C[C@H](O)[C@@H](O)[C@H](O)[C@H]2CO)nn1)C1C4N(Cc2cn(CCCCCCN4C[C@H](O)[C@@H](O)[C@H](O)[C@H]4CO)nn2)C(=O)N1Cc1cn(CCCCCCN2C[C@H](O)[C@@H](O)[C@H](O)[C@H]2CO)nn1)C1C3N(Cc2cn(CCCCCCN3C[C@H](O)[C@@H](O)[C@H](O)[C@H]3CO)nn2)C(=O)N1Cc1cn(CCCCCCN2C[C@H](O)[C@@H](O)[C@H](O)[C@H]2CO)nn1.[Br-] (stereo partly drawn) [Compound 8, Br^−@(DNJ-C6)12BU[6].TBA^+] |
| mixed | 108 | < 1 | 3.0 | 162 ± 40 | CCCC[N+](CCCC)(CCCC)CCCC.O=C1N(Cc2cn(CCCCCCN3C[C@H](O)[C@@H](O)[C@H](O)[C@H]3CO)nn2)C2C(N1Cc1cn(CCCCCCN3C[C@H](O)[C@@H](O)[C@H](O)[C@H]3CO)nn1)N1CN3C(=O)N(CN4C(=O)N(CN5C(=O)N(CN6C(=O)N(CN7C(=O)N(CN2C1=O)C1C7N(Cc2cn(CCCCCCN7C[C@H](O)[C@@H](O)[C@H](O)[C@H]7CO)nn2)C(=O)N1Cc1cn(CCCCCCN2C[C@H](O)[C@@H](O)[C@H](O)[C@H]2CO)nn1)C1C6N(Cc2cn(CCCCCCN6C[C@H](O)[C@@H](O)[C@H](O)[C@H]6CO)nn2)C(=O)N1Cc1cn(CCCCCCN2C[C@H](O)[C@@H](O)[C@H](O)[C@H]2CO)nn1)C1C5N(Cc2cn(CCCCCCN5C[C@H](O)[C@@H](O)[C@H](O)[C@H]5CO)nn2)C(=O)N1Cc1cn(CCCCCCN2C[C@H](O)[C@@H](O)[C@H](O)[C@H]2CO)nn1)C1C4N(Cc2cn(CCCCCCN4C[C@H](O)[C@@H](O)[C@H](O)[C@H]4CO)nn2)C(=O)N1Cc1cn(CCCCCCN2C[C@H](O)[C@@H](O)[C@H](O)[C@H]2CO)nn1)C1C3N(Cc2cn(CCCCCCN3C[C@H](O)[C@@H](O)[C@H](O)[C@H]3CO)nn2)C(=O)N1Cc1cn(CCCCCCN2C[C@H](O)[C@@H](O)[C@H](O)[C@H]2CO)nn1.[I-] (stereo partly drawn) [Compound 9, I^-@(DNJ-C6)12BU[6].TBA^+] |

| Compound | Inhibition Mode | Ki [µM] | rp/n (relative potency per inhitope) | Rp (relative potency) | Ki' [µM] |
| --- | --- | --- | --- | --- | --- |
| O=C1N(Cc2cn(CCCCCCN3C[C@H](O)[C@@H](O)[C@H](O)[C@H]3CO)nn2)[C@H]2[C@@H](N1Cc1cn(CCCCCCN3C[C@H](O)[C@@H](O)[C@H](O)[C@H]3CO)nn1)N1CN3C(=O)N(CN4C(=O)N(CN5C(=O)N(CN2C1=O)[C@@H]1[C@H]5N(Cc2cn(CCCCCCN5C[C@H](O)[C@@H](O)[C@H](O)[C@H]5CO)nn2)C(=O)N1Cc1cn(CCCCCCN2C[C@H](O)[C@@H](O)[C@H](O)[C@H]2CO)nn1)[C@H]1[C@@H]4N(Cc2cn(CCCCCCN4C[C@H](O)[C@@H](O)[C@H](O)[C@H]4CO)nn2)C(=O)N1Cc1cn(CCCCCCN2C[C@H](O)[C@@H](O)[C@H](O)[C@H]2CO)nn1)[C@@H]1[C@H]3N(Cc2cn(CCCCCCN3C[C@H](O)[C@@H](O)[C@H](O)[C@H]3CO)nn2)C(=O)N1Cc1cn(CCCCCCN2C[C@H](O)[C@@H](O)[C@H](O)[C@H]2CO)nn1 [Compound 3, (DNJ-C6)8BU[4]] | competitive | 9.7 | 4 | 33 |  |
